# Assay results from patent publication US20210403455A1 (priority 2018, published 2021).
# System: rice blast
# Assay type: cell-based
# Conditions: acetone solution at 500 ppm, 1000 μl dropped on oatmeal medium; 8 mm rice blast disc; 25° C. for five days; fungal filament elongation vs acetone-only treatment
compound,measurement,value
"COc1nc(-c2ccccn2)nc(F)c1C(F)(F)F [Example 3, 6-fluoro-4-methoxy-2-(2-pyridyl)-5-trifluoromethylpyrimidine]",Preventive value,80
